Data reported in article PMC5764337 (PLoS ONE, 2018).

Legend:
Assay type in all cases: biochemical
B/YAM-D342S virus NA = B/YAM-D342S virus NA (Influenza B virus, UniProt Q90021, D342S)
A/PR8-S331R virus NA = A/PR8-S331R virus NA (Influenza A virus (H3N2), UniProt A0A193ACB1, S331R)
B/YAM-A395T virus NA = B/YAM-A395T virus NA (Influenza B virus, UniProt C0LT34, A395T)
B/YAM-A395V virus NA = B/YAM-A395V virus NA (Influenza B virus, UniProt A0A1W5M8K9, A395V)
A/PR8-I222V virus NA = A/PR8-I222V virus NA (Influenza A virus (H3N2), UniProt V5P6L4, I222V)
A/PR8-S331G virus NA = A/PR8-S331G virus NA (Influenza A virus (H3N2), UniProt A0A193ACB1, S331G)
B/YAM-A395D virus NA = B/YAM-A395D virus NA (Influenza B virus, UniProt C0LT34, A395D)
[1] = read-out: NA enzyme inhibition assay (mean IC50 ± SD)

CCC(CC)[C@H](NC(C)=O)[C@@H]1[C@H](O)[C@@H](C(=O)O)C[C@H]1N=C(N)N [Peramivir, peramivir]
fold increase in IC50 over B/BR/60/08 (B/YAM-D342S virus NA): 0.4 ± 0.12 (0.8) fold | IC50 (B/YAM-D342S virus NA; [1]): 0.4 nM | fold increase in IC50 over A/PR8-WT (A/PR8-S331R virus NA): 0.2 ± 0.06 (2) fold | IC50 (A/PR8-S331R virus NA; [1]): 0.2 nM | fold increase in IC50 over B/BR/60/08 (B/YAM-A395T virus NA): 0.6 ± 0.08 (1.2) fold | IC50 (B/YAM-A395T virus NA; [1]): 0.6 nM | fold increase in IC50 over B/BR/60/08 (B/YAM-A395V virus NA): 0.8 ± 0.12 (1.6) fold | IC50 (B/YAM-A395V virus NA; [1]): 0.8 nM | fold increase in IC50 over A/PR8-WT (A/PR8-I222V virus NA): 0.1 ± 0.01 (1) fold | IC50 (A/PR8-I222V virus NA; [1]): 0.1 nM | fold increase in IC50 over A/PR8-WT (A/PR8-S331G virus NA): 0.3 ± 0.3 (3) fold | IC50 (A/PR8-S331G virus NA; [1]): 0.3 nM | fold increase in IC50 over B/BR/60/08 (B/YAM-A395D virus NA): 0.5 ± 0.36 (1) fold | IC50 (B/YAM-A395D virus NA; [1]): 0.5 nM
